The test is described as follows: Inhibition of LCK in human peripheral T cells assessed as suppression of TCR-dependant cell proliferation.

By IC50 is commonly meant the concentration that gives 50% inhibition. On to `Cc1c(-c2c(F)cc(C(N)=O)c3[nH]c4c(c23)CC[C@H](C(C)(C)O)C4)cccc1-n1c(=O)c2cccc(F)c2n(C)c1=O`, for which the IC50 was 3.8 µM.

For the origin of these results see BindingDB's records for doi:10.1021/acs.jmedchem.6b01088 (Bristol Myers Squibb, 2016).
